In ChEMBL document CHEMBL1139088, “Antihyperglycemic and antidyslipidemic agent from Aegle marmelos” (2007):
Calls of active or inactive are those of the source. No cut-off for these calls is given here.

What was measured:
Rattus norvegicus [1] = test: Increase in blood glucose levels in Sprague-Dawley Albino rat at 100 mg/kg, po after 5 hrs; assay type: functional
Rattus norvegicus [2] = test: Increase in blood glucose levels in Sprague-Dawley Albino rat at 100 mg/kg, po after 24 hrs; assay type: functional
Hamster [3] = test: Decrease in plasma FFA levels in dyslipidemic hamster model at 108 mg/kg after 7 days; assay type: functional, Cricetinae; set-up: scale not given: the % may be the effect or the level left
Hamster [4] = test: Decrease in plasma triglyceride levels in dyslipidemic hamster model at 108 mg/kg after 7 days; assay type: functional, Cricetinae; set-up: scale not given: the % may be the effect or the level left
Hamster [5] = test: Increase in plasma HDL-C levels in dyslipidemic hamster model at 108 mg/kg after 7 days; assay type: functional, organism-based; set-up: dose 108 mg/kg; details: Cricetinae
Hamster [6] = test: Decrease in plasma glycerol levels in dyslipidemic hamster model at 108 mg/kg after 7 days; assay type: functional, Cricetinae; set-up: scale not given: the % may be the effect or the level left
Hamster [7] = test: Decrease in plasma cholesterol levels in dyslipidemic hamster model at 108 mg/kg after 7 days; assay type: functional, Cricetinae; set-up: scale not given: the % may be the effect or the level left
Hamster [8] = test: Increase in ratio of plasma HDL to plasma cholesterol levels at 108 mg/kg after 7 days; assay type: functional, Cricetinae
Hamster [9] = test: Decrease in plasma triglyceride levels in dyslipidemic hamster model at 50 mg/kg after 7 days; assay type: functional, Cricetinae; set-up: scale not given: the % may be the effect or the level left
Hamster [10] = test: Decrease in plasma glycerol levels in dyslipidemic hamster model at 50 mg/kg after 7 days; assay type: functional, Cricetinae; set-up: scale not given: the % may be the effect or the level left
Homo sapiens [11] = species: Homo sapiens; test: Inhibition of alpha-glucosidase
Hamster [12] = test: Decrease in plasma FFA levels in dyslipidemic hamster model at 50 mg/kg after 7 days; assay type: functional, Cricetinae; set-up: scale not given: the % may be the effect or the level left
Hamster [13] = test: Decrease in plasma cholesterol levels in dyslipidemic hamster model at 50 mg/kg after 7 days; assay type: functional, Cricetinae; set-up: scale not given: the % may be the effect or the level left
Hamster [14] = test: Decrease in plasma cholesterol levels in dyslipidemic hamster model at 30 mg/kg after 7 days; assay type: functional, Cricetinae; set-up: scale not given: the % may be the effect or the level left
Hamster [15] = test: Increase in ratio of plasma HDL to plasma cholesterol levels at 30 mg/kg after 7 days; assay type: functional, Cricetinae
Hamster [16] = test: Increase in plasma HDL-C levels in dyslipidemic hamster model at 30 mg/kg after 7 days; assay type: functional, organism-based; set-up: dose 30 mg/kg; details: Cricetinae
Hamster [17] = test: Increase in ratio of plasma HDL to plasma cholesterol levels at 50 mg/kg after 7 days; assay type: functional, Cricetinae
Homo sapiens [18] = species: Homo sapiens; test: Inhibition of PTPase
Hamster [19] = test: Decrease in plasma triglyceride levels in dyslipidemic hamster model at 30 mg/kg after 7 days; assay type: functional, Cricetinae; set-up: scale not given: the % may be the effect or the level left
Hamster [20] = test: Increase in plasma HDL-C levels in dyslipidemic hamster model at 50 mg/kg after 7 days; assay type: functional, Cricetinae
Hamster [21] = test: Decrease in plasma glycerol levels in dyslipidemic hamster model at 30 mg/kg after 7 days; assay type: functional, Cricetinae; set-up: scale not given: the % may be the effect or the level left
Hamster [22] = test: Decrease in plasma FFA levels in dyslipidemic hamster model at 30 mg/kg after 7 days; assay type: functional, Cricetinae; set-up: scale not given: the % may be the effect or the level left

CN(C)C(=N)NC(=N)N [METFORMIN]
Activity (Rattus norvegicus [1]): 23.5%
Activity (Rattus norvegicus [2]): 26.5%

CC(C)OC(=O)C(C)(C)Oc1ccc(C(=O)c2ccc(Cl)cc2)cc1 [FENOFIBRATE]
Activity (Hamster [3]): 20%
Activity (Hamster [4]): 42%
Activity (Hamster [5]): inactive
Activity (Hamster [6]): 36%
Activity (Hamster [7]): 18%
Activity (Hamster [8]): 10%

COc1ccc([C@@H](O)CNC(=O)/C=C/c2ccccc2)cc1 [AEGELINE]
Activity (Hamster [9]): 55%
Activity (Hamster [10]): 31%
Activity (Homo sapiens [11]): inactive
Activity (Hamster [12]): 24%
Activity (Hamster [13]): 24%
Activity (Hamster [14]): 17%
Activity (Hamster [15]): 20%
Activity (Hamster [16]): inactive
Activity (Hamster [17]): 66%
Activity (Homo sapiens [18]): inactive
Activity (Hamster [19]): 48%
Activity (Hamster [20]): 28%
Activity (Rattus norvegicus [1]): 12.9%
Activity (Rattus norvegicus [2]): 16.9%
Activity (Hamster [21]): 23%
Activity (Hamster [22]): 14%
